Laboratory results from publication PMC8073686, “Characterization of Subtype Selective Cannabinoid CB2 Receptor Agonists as Potential Anti-Inflammatory Agents” (Pharmaceuticals, 2021).

Legend:
IL-6 mRNA in BV-2 cells = assay: LPS-induced IL-6 mRNA in BV-2 cells; format: cell-based, murine; details: 10 μM, 6 h LPS stimulation
Description: (§1) We stimulated BV-2 by lipopolysaccharide (LPS) and confirmed induction of pro-inflammatory cytokine IL-1β and IL-6 (data not shown). […] These effects were also confirmed by cytokine protein levels.
(§2) Figure 6 Effect of ABK5-1 on lipopolysaccharide (LPS)-induced cytokine production in microglia. BV-2 cells were pretreated with DMSO (<0.1%) or 1 or 10 μM ABK5-1 and stimulated with LPS. (A) mRNA levels of IL-1β and IL-6 after 6 h of LPS stimulation. (B) IL-1β protein concentration in the cell culture medium after 24 h of LPS stimulation. U.D. indicates under detection limit. (C) IL-6 protein concentration in the cell culture medium after 24 h of LPS stimulation. (D) Viability of BV-2 cells after ABK5-1 10 μM treatment. Results are indicated as the mean ± S.D. of three independent assays performed for each concentration. One-way ANOVA plus Dunnett’s post-hoc test were used and **** p < 0.0001 (versus reference). TEXT PRINTED IN THE PICTURE: (B) ABK5-1: IL-1β (pg/mL): U.D. (10 μM; LPS +)

[1] = system: IL-6 production in BV-2 cells; assay: LPS-induced IL-6 protein in BV-2 culture medium; format: cell-based, murine; details: 10 μM, 24 h LPS stimulation
Description: as §1, §2

[2] = system: TNF-α production in Jurkat cells; assay: PHA/PMA-induced TNF-α production in Jurkat cells (ELISA of culture medium); format: cell-based, human; details: 10 μM, 24 h
Description: Activation of CB2 is known to have anti-inflammatory effects. There are some studies reporting that CB2 agonists decrease cytokine production in immune cells. We also reported that the cannabinoid receptor agonist CP55,940 and ABK5 inhibit cytokine production in the human T cell lines Jurkat and MOLT-4 [24]. Since ABK5-1 and 5-2 were confirmed to be CB2-subtype selective agonists, we were interested to determine whether these compounds also have anti-inflammatory effects. Note, although ABK5-6 had marginally better binding affinity to CB2, it bound to CB1 very, very weakly (i.e., micromolar range). Therefore ABK5-6 was not selected for further evaluations. […] To test if these mRNA changes are reflected in the protein levels of cytokines, the IL-2 and TNF-α concentration in the cell culture medium were measured by ELISA. […]
Figure 4 Effect of ABK5-1 and ABK5-2 on phytohemagglutinin (PHA)/phorbol 12-myristate 13-acetate (PMA)-induced cytokine production in T cells. […] IL-2 and TNF-α mRNA levels were determined by real-time PCR (RT-PCR) after ABK5-1 treatment and (A) 3 h and (B) 24 h of PHA/PMA (phytohemagglutinin/phorbol 12-myristate 13-acetate) stimulation. […] IL-2 and TNF-α mRNA were also examined after ABK5-2 treatment and (E) 3 h and (F) 24 h of stimulation, and protein levels of (G) IL-2 and (H) TNF-α were measured after 24 h stimulation. […]

IL-1β mRNA in BV-2 cells = assay: LPS-induced IL-1β mRNA in BV-2 cells; format: cell-based, murine; details: 10 μM, 6 h LPS stimulation
Description: as §1, §2

[3] = system: IL-1β production in BV-2 cells; assay: LPS-induced IL-1β protein in BV-2 culture medium; format: cell-based, murine; details: 10 μM
Description: as §1, §2

Row | Compound | decrease of IL-6 mRNA (IL-6 mRNA in BV-2 cells) | decrease of IL-6 cytokine concentration in the culture medium [1] | decrease of TNF-α production (protein, ELISA) [2] | decrease of IL-1β mRNA (IL-1β mRNA in BV-2 cells) | IL-1β cytokine concentration in the culture medium (in words) ([3]; 24 h LPS stimulation) | IL-1β ([3]; LPS +, 24 h, U.D. = under detection limit)
1 | CCOC(=O)c1ccccc1NC(=O)CN(c1ccc(C)cc1C)S(=O)(=O)c1ccccc1 [ABK5-1] | 48% | 47% | ~37% | 63% | under the detection limit | U.D.
2 | CCOC(=O)c1ccccc1NC(=O)CN(c1c(C)cccc1C)S(=O)(=O)c1ccccc1 [ABK5-2] | – | – | ~43% | – | – | –
